From PubChem BioAssay (NCI)
Values joined by “and” are separate entries in the source; they are usually repeats but may differ in a detail not shown here. Identical values can stand only once.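 Grown in 96-well plates, cells were treated for 48 hours with each compound at five concentrations. Insufficient inhibition: endpoint recorded as highest concentration tested. At the GI50, growth is halved. TGI marks complete inhibition of growth.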

How the values were obtained:
Assay in all cases: NCI-60 cell line screen, 48 h
BT-549 breast = system: BT-549 breast
HCC-2998 colon = system: HCC-2998 colon
MALME-3M melanoma = system: MALME-3M melanoma
MCF7 breast = system: MCF7 breast
MDA-MB-231 breast = system: MDA-MB-231 breast
MDA-MB-435 = system: MDA-MB-435
NCI-H522 lung = system: NCI-H522 lung
SK-MEL-28 melanoma = system: SK-MEL-28 melanoma

Row | SMILES | TGI (BT-549 breast) | TGI (HCC-2998 colon) | TGI (MALME-3M melanoma) | TGI (MCF7 breast) | TGI (MDA-MB-231 breast) | TGI (MDA-MB-435) | TGI (NCI-H522 lung) | TGI (SK-MEL-28 melanoma) | GI50 (BT-549 breast) | GI50 (HCC-2998 colon) | GI50 (MALME-3M melanoma) | GI50 (MCF7 breast) | GI50 (MDA-MB-231 breast) | GI50 (MDA-MB-435) | GI50 (NCI-H522 lung) | GI50 (SK-MEL-28 melanoma)
1 | CC(C)c1cc(C(C)C)c(Cl)c(Cl)c1O (tested in a mixture with another compound) | 40.1 µM | 64.5 µM | 52.9 µM | 54.6 µM | 46 µM | 46.1 µM | 35.8 µM | 42.4 µM | – | – | – | – | – | – | – | –
2 | Cc1ccc(C(=O)N2C/C(=C/c3ccccc3)C(=O)/C(=C/c3ccccc3)C2)cc1 | 15.8 µM | 8.67 µM | > 100 µM | > 41.9 µM | > 77.2 µM | 6.41 µM | > 56 µM | 68.9 µM | 3.42 µM | 3.08 µM | 30.6 µM | 0.387 µM | 4.61 µM | 1.01 µM | 11.6 µM | 8.98 µM
3 | CN1CC[C@]23c4c5ccc(O)c4OC2c2[nH]ncc2C[C@H]3[C@H]1C5 (some centres undefined) | > 100 µM | > 100 µM | > 100 µM | > 100 µM | > 100 µM | > 100 µM | > 100 µM | > 100 µM | – | – | – | – | – | – | – | –
4 | CN(c1ccc(NC(=O)NCCN2CCOCC2)cc1)c1ccnc(Nc2ccc(CS(C)(=O)=O)cc2)n1 | > 25 µM | > 25 µM | > 25 µM | > 25 µM | > 25 µM | > 25 µM | > 25 µM | > 25 µM | > 25 µM | > 25 µM | > 25 µM | > 21.7 µM | > 25 µM | > 25 µM | > 25 µM | > 25 µM
5 | CCOC(=O)c1cc2cc(OCc3ccccc3)ccc2[nH]1 | > 100 µM | > 100 µM | > 100 µM | > 100 µM | > 100 µM | > 100 µM | > 100 µM | > 100 µM | > 100 µM | > 100 µM | > 100 µM | > 100 µM | 49.2 µM | > 100 µM | > 100 µM | > 100 µM
6 | CCc1ccc(C2=NN(c3ccc(S(C)(=O)=O)cc3)C(=O)CC2)cc1 | 16.3 µM | 33.4 µM | > 82.2 µM | > 91.6 µM | > 60.2 µM | 0.804 µM | 8.37 µM | > 100 µM | 0.513 µM | 3.96 µM | 3.58 µM | 3.04 µM | 3.32 µM | 0.212 µM | 0.339 µM | 1.59 µM
7 | NCC(Cc1ccccc1)P(=O)(O)O (centres undefined) | > 100 µM | > 100 µM | > 100 µM | > 100 µM | > 100 µM | > 100 µM | > 100 µM | > 100 µM | – | – | – | – | – | – | – | –
8 | CC1(C)N=C(N)N=C(N)N1c1ccc(OCCCCNC(=O)Nc2cccc(S(=O)(=O)F)c2)c(Cl)c1 | > 100 µM | > 100 µM | > 100 µM | > 100 µM | > 100 µM | > 100 µM | 69.7 µM | > 100 µM | 12.5 µM | 5.22 µM | 29.6 µM | 2.09 µM | 6.57 µM | 0.642 µM | 1.83 µM | 6.04 µM
9 | O=C(O)Cn1ccc(=O)c2c([N+](=O)[O-])cccc21 | > 100 µM | > 100 µM | > 100 µM | > 100 µM | > 100 µM | > 100 µM | > 100 µM | > 100 µM | – | – | – | – | – | – | – | –
10 | CCN(CC)C(=O)CCCCCn1c2ccccc2c2c3c(c4c5ccccc5[nH]c4c21)C(=O)N(O)C3=O | 48.5 µM | 27.1 µM | 65.7 µM | > 100 µM | 82.5 µM | 40 µM | 3.13 µM | > 100 µM | 4.66 µM | 4.72 µM | 8.2 µM | 2.94 µM | 5.52 µM | 4.04 µM | 1.41 µM | 5.38 µM
11 | CCN(CCNc1ccc(C)c2sc3cc(Cl)ccc3c(=O)c12)CC(C)(C)O | > 100 µM | 4.08 µM | 7.3 µM | 26.9 µM | 11.5 µM | 4.59 µM | 20 µM | 4.34 µM | 18.7 µM | 2.02 µM | 2.16 µM | 11.7 µM | 2.31 µM | 2 µM | 3.82 µM | 2.09 µM
12 | CC/C(=C(/c1ccc(/C=C/C(=O)O)cc1)c1ccc2[nH]ncc2c1)c1ccc(F)cc1Cl | 22.7 µM | 29.8 µM | 44.9 µM | 15.4 µM | 34.6 µM | 8.38 µM | 28.2 µM | 22.2 µM | 7.79 µM | 13.8 µM | 18.6 µM | – | 16.2 µM | 2.76 µM | 9.42 µM | 7.25 µM
13 | CC(C)C/C(=N\NC(=O)c1ccncc1)c1cc(Cl)ccc1O | > 25.6 µM | – | 16.7 µM | 12.3 µM | > 46 µM | 44.9 µM | 16 µM | > 69.4 µM | 0.922 µM | 0.27 µM | 1.65 µM | 0.484 µM | 0.622 µM | 0.682 µM | 0.312 µM | 2.61 µM
14 | N=C(N)c1ccc(OCCCCCOc2ccc(C(=N)N)cc2)cc1 | 14.1 µM and 16 µM and 25.3 µM | 40.4 µM and 28.3 µM | 8.4 µM and 35.3 µM | 14.4 µM and 25.9 µM and 28.5 µM | > 50 µM and 44.4 µM | 13.4 µM and 23.2 µM and 42.9 µM | 9.58 µM and 21.3 µM | 12.3 µM and 21.9 µM and 49 µM | 6.65 µM and 3.41 µM and 11.1 µM | 7.15 µM | 1.81 µM | 2.59 µM | 8.69 µM | 3.99 µM | 1.66 µM | 5.46 µM
15 | O=[N+]([O-])c1ccc(/C=C\c2ccc3c(c2)OCO3)c([N+](=O)[O-])c1 | 34.2 µM | 27.6 µM | 46.5 µM | 8.58 µM | 33.2 µM | 22.1 µM | 25.6 µM | 32.3 µM | – | – | – | – | – | – | – | –
16 | C=CC[PH+](c1ccccc1)c1ccccc1.C=CC[PH+](c1ccccc1)c1ccccc1.[Pt+2].[S-]c1ncccn1.[S-]c1ncccn1 | > 100 µM | 41.5 µM | 10.4 µM | > 100 µM | 52.8 µM | 33.8 µM | 5.78 µM | 44.5 µM | 25.1 µM | 19.1 µM | 2.5 µM | 4.8 µM | 5.68 µM | 16.3 µM | 2.17 µM | 16.4 µM
17 | Nc1ccn([C@@H]2S[C@H](CO)[C@@H](O)[C@@H]2F)c(=O)n1 | > 100 µM | > 100 µM | > 100 µM | > 100 µM | > 100 µM | > 100 µM | > 100 µM | > 100 µM | 1.74 µM | 3.03 µM | 1.52 µM | 0.0545 µM | > 100 µM | 0.18 µM | 8.83 µM | > 100 µM
18 | Nc1n[nH]c2ccc([C@@H]3Nc4c(F)cc5[nH]ncc5c4[C@H]4C5CCC(C5)[C@@H]34)cc12 (some centres undefined) | > 31.8 µM | 22.2 µM | > 57.9 µM | > 43.4 µM | > 47 µM | 0.161 µM | 2.17 µM | > 60.7 µM | 0.374 µM | 0.39 µM | 1.38 µM | 0.0702 µM | 0.732 µM | 0.0327 µM | 0.102 µM | 2.19 µM
19 | O=C(/C=C/c1cccc(Oc2ccc(Cl)cc2)c1)c1ccccc1 | 97.5 µM | 255 µM | 175 µM | 118 µM | 89 µM | 50.9 µM | 246 µM | 107 µM | 31.6 µM | 117 µM | 38.3 µM | 26.9 µM | 29.1 µM | 21.9 µM | 67.1 µM | 29.7 µM
20 | CCN(CC)CCS(=O)(=O)CCNc1ccnc2cc(Cl)ccc12 | 9.62 µM | > 23.8 µM | 13.3 µM | > 33.8 µM | > 100 µM | > 20.5 µM | 2.11 µM | 25.7 µM | 2.94 µM | 8.81 µM | 2.15 µM | 1.86 µM | 3.1 µM | 1.65 µM | 0.758 µM | 4.97 µM
21 | C=CC(C)(O)CCC1C(=C)C(O)CC2C(C)(C)CCCC12C (centres undefined) | 32.4 µM | 33.2 µM | 34.8 µM | 60 µM | 31.8 µM | 41.8 µM | 34.1 µM | 36.8 µM | – | – | – | – | – | – | – | –
22 | Cc1n(Cc2ccc3ccccc3n2)cc[n+]1Cc1ccc2ccccc2c1 | 4.1 µM | 7.24 µM | 2.37 µM | 6.08 µM | 4.08 µM | 2.69 µM | 1.58 µM | 7 µM | 0.64 µM | 0.819 µM | 0.394 µM | 0.526 µM | 0.665 µM | 0.412 µM | 0.312 µM | 0.975 µM
23 | O=C(Nc1cccc(-n2cc(-c3ccncc3)c(-c3ccc(O)c(Cl)c3)n2)c1)Nc1ccc(Cl)c(Cl)c1 | 4.32 µM | > 100 µM | 6.86 µM | 5.23 µM | > 100 µM | 5.92 µM | 3.76 µM | 6.58 µM | 1.8 µM | 3.65 µM | 2.11 µM | 1.88 µM | 1.85 µM | 1.96 µM | 1.3 µM | 1.8 µM
24 | COc1cc2c3c(n(CCCN4CCSCC4)c(=O)c2cc1OC)-c1cc2c(cc1C3=O)OCO2 | > 100 µM | > 100 µM | > 100 µM | > 100 µM | 89.9 µM | > 100 µM | 65.4 µM | > 100 µM | 56.7 µM | 35.1 µM | 67.5 µM | 61.4 µM | 25.2 µM | > 100 µM | 19.9 µM | > 100 µM
